Consider one compound from patent US20240226120A1 (priority 2020, published 2024).

For test [1], the system named is interferon and interferon-induced antiviral effector gene expression in cells expressing ORF8. In words: qPCR of interferons and effector gene expression, ORF8. Format: cell-based, human.
The test system of test [2] is interferon and interferon-induced antiviral effector gene expression in cells expressing ORF10. Description: qPCR of interferons and effector gene expression, ORF10. Format: cell-based, human. (Quantitative PCR measures a nucleic acid by following its amplification.)

Regarding `C=C(C)[C@@H]1CCC(C)=C[C@H]1c1c(O)cc(CCCCC)cc1O` [Cannabidiol, 2-[(1R,6R)-3-Methyl-6-(1-methylethenyl)-2-cyclohexen-1-yl]-5-pentyl-1,3-benzenediol], the “Interferon Lambda 1 mRNA expression” value in test [1] (ORF8, 1 μM CBD vs vehicle alone, 24 hours (FIG. 9A)) is given as “significantly increased”. In test [1] (ORF8, 1 μM CBD, 24 hours), the “extent of OAS1 augmentation compared with cells transfected with control vector” value was “significantly higher”. For the same compound, the INF-gamma expression result in test [1] (ORF8, 1 μM CBD, 24 hours, compared with effect in control cells (FIG. 9B)) is “greater effect”. Moreover, in test [1] (ORF8, 1 μM CBD, 24 hours, relative to all other groups and treatments (FIG. 10)), the OAS1 gene expression entry is “highly significant increase”. For the same compound, the “induction of OAS1” value in test [2] (ORF10, 1 μM CBD relative to vehicle alone, 24 hours (FIG. 14)) is “significantly increased”. Besides, the “OAS1 induction compared with CBD plus control plasmid” value in test [2] (ORF10, 1 μM CBD, 24 hours) is “lower”.
